In patent publication US20020051978A1, “Methods and compositions for the identification, assessment, prevention and therapy of human cancers” (priority 2000, published 2002):
Several values for one entry are separate records, joined by “and”; a condition that tells them apart may be missing. Identical values can stand only once. Like-named read-outs stand apart in the source and are kept apart here.

Columns and labels:
[1] = tested on: 60 cancer cell lines (NCI 60 cancer cell line series); assay: NCI-DTP in vitro cancer screen, sulforhodamine B (SRB) growth inhibition, 48 hour exposure; assay type: cell-based, human
Summary of the method: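 Sixty NCI-DTP cancer lines plated at line-specific densities, dosed on day 1 in duplicate with 5 concentrations at ten-fold intervals. After 48 h exposure, cell mass read by SRB staining; GI50 (50% growth inhibition) taken from dose-response curves and expressed as -log GI50.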

[2] = tested on: 60 cancer cell lines (NCI 60 cancer cell line series); settings: cited from earlier work

COc1cccc2c1C(=O)c1c(O)c3c(c(O)c1C2=O)C[C@@](O)(C(C)=O)C[C@@H]3O[C@H]1C[C@H](N)[C@H](O)[C@H](C)O1 [Daunorubicin]
classification of cell line as Low(1), Medium(2) or High(3) sensitivity to compound ([1]; Breast BT-549 (CL5013)): 1 | classification of cell line as Low(1), Medium(2) or High(3) sensitivity to compound ([1]; Breast MCF7(I) (CL5001)): 3 | classification of cell line as Low(1), Medium(2) or High(3) sensitivity to compound ([1]; Breast MCF7/ADRr (CL5002)): 1 | classification of cell line as Low(1), Medium(2) or High(3) sensitivity to compound ([1]; Breast MDA-MB-231 CL5005): 1 | classification of cell line as Low(1), Medium(2) or High(3) sensitivity to compound ([1]; Breast MDA-MB-435 (CL5011)): 1 | classification of cell line as Low(1), Medium(2) or High(3) sensitivity to compound ([1]; Breast MDA-N CL5012): 1 | classification of cell line as Low(1), Medium(2) or High(3) sensitivity to compound ([1]; Breast T-47D (CL5014)): 2 | classification of cell line as Low(1), Medium(2) or High(3) sensitivity to compound ([1]; CNS SF-268 CL12014): 2 | classification of cell line as Low(1), Medium(2) or High(3) sensitivity to compound ([1]; CNS SF-295 CL12015): 2 | classification of cell line as Low(1), Medium(2) or High(3) sensitivity to compound ([1]; CNS SNB-19 (CL12002)): 2 | classification of cell line as Low(1), Medium(2) or High(3) sensitivity to compound ([1]; CNS SNB-75(I) CL12005): 2 | classification of cell line as Low(1), Medium(2) or High(3) sensitivity to compound ([1]; CNS U251(I) CL12009): 2 | classification of cell line as Low(1), Medium(2) or High(3) sensitivity to compound ([1]; Colon COLO-250 CL4010): 1 | classification of cell line as Low(1), Medium(2) or High(3) sensitivity to compound ([1]; Colon HCC-2998 (CL4002)): 1 | classification of cell line as Low(1), Medium(2) or High(3) sensitivity to compound ([1]; Colon HCT-15 CL4015): 1 | classification of cell line as Low(1), Medium(2) or High(3) sensitivity to compound ([1]; Colon HCT-116 (CL4003)): 2 | classification of cell line as Low(1), Medium(2) or High(3) sensitivity to compound ([1]; Colon HT29(I) CL4001): 2 | classification of cell line as Low(1), Medium(2) or High(3) sensitivity to compound ([1]; Colon SW-620 (CL4009)): 2 | classification of cell line as Low(1), Medium(2) or High(3) sensitivity to compound ([1]; Leukemia CCRF-CEM(I) (CL7003)): 3 | classification of cell line as Low(1), Medium(2) or High(3) sensitivity to compound ([1]; Leukemia HL-60(I) (CL7008)): 3 | classification of cell line as Low(1), Medium(2) or High(3) sensitivity to compound ([1]; Leukemia MOLT-4 (CL7006)): 3 | classification of cell line as Low(1), Medium(2) or High(3) sensitivity to compound ([1]; Leukemia SR CL7019): 3 | classification of cell line as Low(1), Medium(2) or High(3) sensitivity to compound ([1]; Melanoma M14 (CL10014)): 1 | classification of cell line as Low(1), Medium(2) or High(3) sensitivity to compound ([1]; Melanoma MALME-3M CL10002): 2 | classification of cell line as Low(1), Medium(2) or High(3) sensitivity to compound ([1]; Melanoma SK-MEL-5 (CL10007)): 2 | classification of cell line as Low(1), Medium(2) or High(3) sensitivity to compound ([1]; Melanoma SK-MEL-28 (CL10008)): 1 | classification of cell line as Low(1), Medium(2) or High(3) sensitivity to compound ([1]; Melanoma UACC-62 (CL10020)): 2 | classification of cell line as Low(1), Medium(2) or High(3) sensitivity to compound ([1]; Melanoma UACC-257 (CL10021)): 1 | classification of cell line as Low(1), Medium(2) or High(3) sensitivity to compound ([1]; NSCLC A549/ATCC (CL1004)): 2 | classification of cell line as Low(1), Medium(2) or High(3) sensitivity to compound ([1]; NSCLC EKVX (CL1008)): 1 | classification of cell line as Low(1), Medium(2) or High(3) sensitivity to compound ([1]; NSCLC HOP-62 (CL1026)): 2 | classification of cell line as Low(1), Medium(2) or High(3) sensitivity to compound ([1]; NSCLC HOP-92 (CL1029)): 2 | classification of cell line as Low(1), Medium(2) or High(3) sensitivity to compound ([1]; NSCLC NCI-H226 CL1013): 2 | sensitivity class NSCLC NCI-H23(I) CL1001 ([1]; cell line NSCLC NCI-H23(I), CL1001): 2 | sensitivity class NSCLC NCI-H332M CL1017 ([1]; cell line NSCLC NCI-H332M, CL1017): 1 | sensitivity class NSCLC NCI-H460 CL1021 ([1]; cell line NSCLC NCI-H460, CL1021): 3 | sensitivity class NSCLC NCI-H522 CL1003 ([1]; cell line NSCLC NCI-H522, CL1003): 2 | sensitivity class Ovarian IGROV1 CL6010 ([1]; cell line Ovarian IGROV1, CL6010): 2 | sensitivity class Ovarian OVCAR-3 CL6001 ([1]; cell line Ovarian OVCAR-3, CL6001): 1 | sensitivity class Ovarian OVCAR-4 CL6002 ([1]; cell line Ovarian OVCAR-4, CL6002): 1 | sensitivity class Ovarian OVCAR-5 CL6003 ([1]; cell line Ovarian OVCAR-5, CL6003): 1 | sensitivity class Ovarian OVCAR-8 CL6005 ([1]; cell line Ovarian OVCAR-8, CL6005): 2 | sensitivity class Prostate DU-145 CL11003 ([1]; cell line Prostate DU-145, CL11003): 2 | sensitivity class Prostate PC-3(I) CL11001 ([1]; cell line Prostate PC-3(I), CL11001): 2 | sensitivity class Renal 786-O CL9018 ([1]; cell line Renal 786-O, CL9018): 2 | sensitivity class Renal A498 CL9013 ([1]; cell line Renal A498, CL9013): 1 | sensitivity class Renal ACHN CL9023 ([1]; cell line Renal ACHN, CL9023): 2 | sensitivity class Renal CAKI-1 CL9015 ([1]; cell line Renal CAKI-1, CL9015): 2 | sensitivity class Renal RXF-393 CL9016 ([1]; cell line Renal RXF-393, CL9016): 1 | sensitivity class Renal SN12C CL9008 ([1]; cell line Renal SN12C, CL9008): 2 | sensitivity class Renal TK10 CL9024 ([1]; cell line Renal TK10, CL9024): 1 | sensitivity class Renal UO-31 CL9004 ([1]; cell line Renal UO-31, CL9004): 1 | -Log (GI50) ([2]; Breast BT-549 (CL5013)): 6.8 and 6.7 | -Log (GI50) ([2]; Breast MCF7(I) (CL5001)): 8.1 and 8.0 | -Log (GI50) ([2]; Breast MCF7/ADRr (CL5002)): 5.3 | -Log (GI50) ([2]; Breast MDA-MB-231 CL5005): 6.7 and 6.9 | -Log (GI50) ([2]; Breast MDA-MB-435 (CL5011)): 6.7 and 6.9 | -Log (GI50) ([2]; Breast MDA-N CL5012): 6.8 and 7.1 | -Log (GI50) ([2]; Breast T-47D (CL5014)): 7.2 and 7.3 | -Log (GI50) ([2]; CNS SNB-19 (CL12002)): 7.4 and 7.7 | -Log (GI50) ([2]; CNS U251(I) CL12009): 7.5 and 7.8 | -Log (GI50) ([2]; Colon COLO-250 CL4010): 6.8 | -Log (GI50) ([2]; Colon HCC-2998 (CL4002)): 6.8 and 6.7 | -Log (GI50) ([2]; Colon HCT-15 CL4015): 6.2 and 5.9 | -Log (GI50) ([2]; Colon HCT-116 (CL4003)): 7.6 and 7.8 | -Log (GI50) ([2]; Colon SW-620 (CL4009)): 7.6 and 7.7 | -Log (GI50) ([2]; Leukemia CCRF-CEM(I) (CL7003)): 7.9 and 8.0 | -Log (GI50) ([2]; Leukemia HL-60(I) (CL7008)): 7.9 and 8.0 | -Log (GI50) ([2]; Leukemia MOLT-4 (CL7006)): 8.2 and 8.0 | -Log (GI50) ([2]; Leukemia SR CL7019): 8.1 and 8.0 | -Log (GI50) ([2]; Melanoma M14 (CL10014)): 6.8 and 7.1 | -Log (GI50) ([2]; Melanoma MALME-3M CL10002): 7.3 and 7.6 | -Log (GI50) ([2]; Melanoma SK-MEL-5 (CL10007)): 7.2 and 7.4 | -Log (GI50) ([2]; Melanoma SK-MEL-28 (CL10008)): 6.5 and 6.7 | -Log (GI50) ([2]; Melanoma UACC-257 (CL10021)): 6.7 and 6.9 | -Log (GI50) ([2]; NCSLC NCI-H522 CL1003): 7.3 and 7.5 | -Log (GI50) ([2]; NSCLC A549/ATCC (CL1004)): 7.3 and 7.6 | -Log (GI50) ([2]; NSCLC EKVX (CL1008)): 6.2 and 5.9 | -Log (GI50) ([2]; NSCLC HOP-62 (CL1026)): 7.6 and 7.8 | -Log (GI50) ([2]; NSCLC HOP-92 (CL1029)): 7.2 and 7.5 | -Log (GI50) ([2]; NSCLC NCI-H226 CL1013): 7.5 | -Log (GI50) ([2]; NSCLC NCI-H332M CL1017): 6.5 and 6.8 | -Log (GI50) ([2]; NSCLC NCI-H460 CL1021): 8.2 and 8.0 | -Log (GI50) ([2]; Ovarian OVCAR-3 CL6001): 6.8 and 7.0 | -Log (GI50) ([2]; Ovarian OVCAR-4 CL6002): 6.5 and 6.8 | -Log (GI50) ([2]; Renal A498 CL9013): 6.8 and 6.9 | -Log (GI50) ([2]; Renal RXF-393 CL9016): 6.8 and 7.0 | -Log (GI50) ([2]; Renal UO-31 CL9004): 6.4
